The record followed here is PMC6150229, “Simultaneous Determination of Twenty-Five Compounds in Rat Plasma Using Ultra-High Performance Liquid Chromatography-Polarity Switching Tandem Mass Spectrometry and Its Application to a Pharmacokinetic Study” (Molecules : A Journal of Synthetic Chemistry and Natural …, 2017).

Like-named read-outs stand apart in the source and are kept apart here.

A short description of one data set: in vivo. Conditions: male, Sprague-Dawley, rat, po, 8 g/kg; for AUC(0-t): AUC0–t; for AUC(0-inf): AUC0–∞.
Data set [1] in a line: Pharmacokinetic study in sham and myocardial ischemia model rats after a single oral dose of QSKL (UHPLC-psMS/MS of plasma, non-compartmental analysis). Conditions: QSKL-treated plasma samples, sham and model rats, single oral dose 8.0 g/kg.
Procedure: (§1) Twelve male Spargue-Dawley rats (200 ± 20 g) were supplied by Vital River Laboratory Animal Technology Co. Ltd. (Beijing, China). […] The rats were acclimated under a humidity (50%) controlled room at 22–25 °C with a 12 h light-dark cycle, and standard diet and water were provided ad libitum for one week.
(§2) Afterwards, all rats were randomly divided into two groups, namely sham and model groups. The myocardial ischemia model was simulated by left anterior descending (LAD) coronary artery ligation [12], whilst the rats belonging to the sham group received the similar surgery, however no actual ligation in LAD. All animals were fasted overnight with free access to water prior to oral dosing. Aliquots (250 μL) of blood were sampled at 0 (pre-dose), 0.08, 0.25, 0.5, 0.75, 1, 1.5, 2, 4, 6, 8, 12, and 24 h from venous around eye socket into heparinized tubes after a single oral dosing of 8.0 g/kg of QSKL and the collected blood samples were immediately subjected for 4000 rpm centrifugation for 10 min at 4 °C to harvest the plasma samples. Each 100 μL aliquot of plasma sample was transferred into another Eppendorf tube and stored at −80 °C till use.
(§3) When analysis, 300 μL of internal standards (200 ng/mL for either internal standard) fortified ACN, corresponding to three volumes of plasma, was spiked into each thawed plasma sample and mixed thoroughly. Then, the resulting samples were processed as those calibration samples.
(§4) Individual animal plasma concentrations versus time dataset were subjected to a non-compartmental pharmacokinetic analysis using WinNonlin software (ver. 6.4, Pharsight Corp., Sunnyvale, CA, USA). The pharmacokinetic parameters of each analyte including the maximum plasma concentration (Cmax), the time at which Cmax was achieved (Tmax), the terminal elimination half-life (t1/2), and the area under the plasma concentration versus time curve (AUC0→t along with AUC0→∞) were calculated. Moreover, Lz corresponding to the ratio of the dosage and AUC0→∞, as well as mean residence time (MRT) that was defined as the ratio of the area under the first moment curve from time 0 to infinity (AUMC0→∞/AUC0→∞) was also calculated. All results are expressed as mean ± SD. Comparisons regarding the pharmacokinetic parameters were carried out between sham and model groups using Student’s t-test, and p values less than 0.05 were considered to be significant.
For data set [2] the following is noted: male, Sprague-Dawley, rat, in vivo, po, 8 g/kg.
Procedure: as §1, §2, §3, §4
Setting [3] is: model group (MG, myocardial ischemia) rats, oral administration of QSKL, plasma, mean ± SD, n = 6.
[4] abbreviates: sham group (SG) rats, oral administration of QSKL, plasma, mean ± SD, n = 6.
Where [5] appears, read: t1/2, model group (MG, myocardial ischemia) rats, oral administration of QSKL, plasma, mean ± SD, n = 6.
The mark [6] stands for this setting: t1/2, sham group (SG) rats, oral administration of QSKL, plasma, mean ± SD, n = 6.

Procedure for in vivo: as §1, §2, §3, §4

By AUC(0-t) is commonly meant exposure summed from dosing to a finite time, without extrapolation to infinity. Broadly, the AUC(0-inf) is the area under the concentration-time curve extrapolated to infinity. What is called Cmax is the highest concentration seen after dosing. A word on the MRT: it is a mean duration of stay, worked out from the concentration-time curve. The Tmax is the time from dosing to the highest level. What is called half-life is the time in which the quantity being followed falls by half. Low values mean fast loss, high ones slow loss. Turning to `COCC12CCC(OC)C34C5CC6(O)C(OC)C(O)C(O)(C5C6OC(=O)c5ccccc5)C(C(OC)C13)C4N(C)C2` (stereo not shown) [benzoylhypaconine], in “in vivo” (setting [3]), the AUC(0-t) was found to be 0.926 ± 0.279 ng·h/mL, the AUC(0-inf) is 1.66 ± 0.331 ng·h/mL, the Cmax is 0.466 ± 0.302 ng/mL and the MRT is 23.6 ± 7.39 h. In “in vivo” (setting [3]), the Tmax is 0.43 ± 0.36 h. In the data set “in vivo” (setting [4]), this compound yielded an AUC(0-t) of 0.985 ± 0.167 ng·h/mL, an AUC(0-inf) of 1.78 ± 0.905 ng·h/mL, a Cmax of 0.284 ± 0.209 ng/mL and an MRT of 22.7 ± 14.9 h. The time of peak concentration (Tmax) in the data set “in vivo” (setting [4]) stood at 0.48 ± 0.33 h. Further, the half-life in the data set “in vivo” (setting [5]) was 16.3 ± 5.46 h. The compound also showed a half-life in the data set “in vivo” (setting [6]) of 15.6 ± 9.06 h. Besides, the “distribution in rat plasma (quantifiable or not)” value in data set [1] was “quantifiable in most samples”.
As to `COCC12CN(C)C3C4C(OC)C1C3(C(OC)CC2O)C1CC2(O)C(OC)C(O)C4(O)C1C2OC(=O)c1ccccc1` (stereo not shown) [benzoylmesaconine], in “in vivo” (setting [3]), the AUC(0-t) was determined as 7.34 ± 7.1 ng·h/mL, the AUC(0-inf) amounted to 11.1 ± 11 ng·h/mL, the Cmax came out at 3.1 ± 2.49 ng/mL and the MRT worked out at 13.7 ± 6.58 h. Also, in the data set “in vivo” (setting [3]), the Tmax is 0.47 ± 0.33 h. Besides, in the data set “in vivo” (setting [4]), the AUC(0-t) was found to be 5.82 ± 2.93 ng·h/mL, the total exposure AUC(0-inf) is 8.3 ± 6.14 ng·h/mL, the Cmax came to 1.15 ± 0.778 ng/mL and the MRT was 20.1 ± 10.3 h. For the same compound, the Tmax in “in vivo” (setting [4]) came to 0.42 ± 0.37 h. The half-life in the data set “in vivo” (setting [5]) is 9.77 ± 5.36 h. In the data set “in vivo” (setting [6]), the half-life is 13 ± 6.34 h. Further, the “distribution in rat plasma (quantifiable or not)” value in data set [1] is “quantifiable in most samples”.
As for `C[C@H]1COC2=C1C(=O)C(=O)c1c2ccc2c1CCCC2(C)C` [cryptotanshinone], in data set [2], the “AUC0–t” value is listed as 10.2 ± 2.21 ng·h/mL, the “AUC0–∞” value is reported as 16.4 ± 8.86 ng·h/mL and the MRT was determined as 25.6 ± 20.1 h. In the data set “in vivo”, the AUC(0-t) was determined as 8.77 ± 2.26 ng·h/mL, the AUC(0-inf) is 12 ± 5.01 ng·h/mL, the highest level (Cmax) was 0.898 ± 0.29 ng/mL and the MRT is 19.3 ± 6.01 h. Also, the half-life in “in vivo” (t1/2) is 12.2 ± 5.2 h.
In the case of `Cc1cccc2c3c(ccc12)C1=C(C(=O)C3=O)[C@@H](C)CO1` [dihydrotanshinone I], in data set [2], the “AUC0–t” value is given as 4.67 ± 2.23 ng·h/mL, the “AUC0–∞” value is given as 5.98 ± 5.34 ng·h/mL and the MRT came out at 14.8 ± 9.29 h. In addition, in “in vivo”, the AUC(0-t) turned out to be 4.99 ± 2.18 ng·h/mL, the AUC(0-inf) was 4.47 ± 0.864 ng·h/mL, the Cmax amounted to 0.618 ± 0.25 ng/mL and the MRT was 8.22 ± 1.2 h. In “in vivo”, the Tmax came to 8 h. The half-life in “in vivo” (t1/2) is 3.9 ± 0.858 h.
In “in vivo” (setting [3]), `COC[C@@]12CC[C@H](OC)[C@]34C(C([C@H](OC)[C@H]13)[C@]1(OC(C)=O)[C@H]3[C@@H](OC(=O)c5ccccc5)[C@](O)(C[C@H]34)[C@@H](OC)[C@@H]1O)N(C)C2` [hypaconitine] had an AUC(0-t) of 0.567 ± 0.26 ng·h/mL, an area under the curve AUC(0-inf) of 0.552 ± 0.148 ng·h/mL, a Cmax of 0.156 ± 0.134 ng/mL and an MRT of 11.9 ± 3.73 h. Besides, the Tmax in the data set “in vivo” (setting [3]) was determined as 1.54 ± 0.71 h. Moreover, in “in vivo” (setting [4]), the AUC(0-t) was 0.824 ± 0.249 ng·h/mL, the AUC(0-inf) amounted to 0.967 ± 0.303 ng·h/mL, the Cmax amounted to 0.101 ± 0.0328 ng/mL and the MRT is 11.7 ± 2.83 h. In the data set “in vivo” (setting [4]), the Tmax came to 2.08 ± 1.6 h. Besides, the half-life in the data set “in vivo” (setting [5]) was 7.45 ± 1.18 h. Further, the half-life in the data set “in vivo” (setting [6]) was 8.67 ± 1.72 h. Moreover, the “distribution in rat plasma (quantifiable or not)” value in data set [1] is “quantifiable in most samples”.
In the data set “in vivo” (setting [3]), `O=C(/C=C/c1ccc(O[C@@H]2O[C@H](CO)[C@@H](O)[C@H](O)[C@H]2O)cc1)c1ccc(O)cc1O` [isoliquiritin] came in with an AUC(0-t) of 1.58 ± 0.493 ng·h/mL, an AUC(0-inf) of 1.86 ± 0.632 ng·h/mL, a Cmax of 0.85 ± 0.761 ng/mL and an MRT of 10.2 ± 4.65 h. In addition, the Tmax in “in vivo” (setting [3]) came to 0.43 ± 0.36 h. In the data set “in vivo” (setting [4]), this compound showed an AUC(0-t) of 1.39 ± 0.36 ng·h/mL, an AUC(0-inf) of 1.64 ± 0.474 ng·h/mL, a peak concentration (Cmax) of 0.389 ± 0.167 ng/mL and an MRT of 10.5 ± 3.13 h. Further, the Tmax in “in vivo” (setting [4]) stood at 0.36 ± 0.31 h. Also, the half-life in the data set “in vivo” (setting [5]) is 8.28 ± 3.4 h. In the data set “in vivo” (setting [6]), this compound gave a half-life of 6.26 ± 0.976 h. In addition, the “distribution in rat plasma (quantifiable or not)” value in data set [1] is “quantifiable in most samples”.
With `O=C1C[C@@H](c2ccc(O)cc2)Oc2cc(O)ccc21` [liquiritigenin], in data set [2], the “AUC0–t” value is 2.53 ± 0.662 ng·h/mL, the “AUC0–∞” value was found to be 2.81 ± 0.98 ng·h/mL and the MRT is given as 9.83 ± 4.37 h. In the data set “in vivo”, this compound had an exposure AUC(0-t) of 2.11 ± 1.73 ng·h/mL, an AUC(0-inf) of 2.22 ± 1.98 ng·h/mL, a Cmax of 0.347 ± 0.276 ng/mL and an MRT of 8.48 ± 1.07 h. The compound further had a half-life in the data set “in vivo” (t1/2) of 3.9 ± 1.03 h.
With `O=C1C[C@@H](c2ccc(O[C@@H]3O[C@H](CO)[C@@H](O)[C@H](O)[C@H]3O)cc2)Oc2cc(O)ccc21` [liquiritin], in data set [2], the “AUC0–t” value is given as 7.66 ± 2.60 ng·h/mL, the “AUC0–∞” value was determined as 9.14 ± 4.02 ng·h/mL and the MRT stood at 10.2 ± 5.77 h. In the data set “in vivo”, the AUC(0-t) was determined as 6.01 ± 1.52 ng·h/mL, the AUC(0-inf) was 7.37 ± 2.08 ng·h/mL, the MRT stood at 10.3 ± 2.3 h and the Tmax is 0.29 ± 0.17 h. Also, the half-life in “in vivo” (t1/2) is 5.76 ± 0.36 h.
With `O=c1cc(-c2ccc(O)c(O)c2)oc2cc(O[C@@H]3O[C@H](CO)[C@@H](O)[C@H](O)[C@H]3O)cc(O)c12` [luteoloside], in data set [2], the “AUC0–t” value was found to be 0.493 ± 0.147 ng·h/mL, the “AUC0–∞” value was determined as 0.869 ± 0.272 ng·h/mL and the MRT came out at 29.4 ± 17.5 h. Further, in the data set “in vivo”, the AUC(0-t) was determined as 0.406 ± 0.055 ng·h/mL, the AUC(0-inf) was determined as 1.06 ± 0.47 ng·h/mL, the MRT amounted to 50.5 ± 26.9 h and the Tmax is 0.5 ± 0.33 h. The compound also had a half-life in “in vivo” (t1/2) of 36.5 ± 16.8 h.
As to `C=C[C@H]1[C@H](O[C@@H]2O[C@H](CO)[C@@H](O)[C@H](O)[C@H]2O)OC=C2C(=O)OCC[C@H]21` [sweroside], in data set [2], the “AUC0–t” value is 247 ± 58.0 ng·h/mL and the “AUC0–∞” value stood at 281 ± 53.4 ng·h/mL. For the same compound, in “in vivo”, the area under the curve AUC(0-t) is 210 ± 75.7 ng·h/mL, the AUC(0-inf) is 294 ± 94.2 ng·h/mL, the Cmax was determined as 28.9 ± 14.3 ng/mL and the Tmax turned out to be 1.58 ± 1.31 h.
`Cc1coc2c1C(=O)C(=O)c1c-2ccc2c(C)cccc12` [tanshinone I]: the “AUC0–t” value in data set [2] was 4.54 ± 1.58 ng·h/mL. Besides, in “in vivo”, the exposure AUC(0-t) is 3.62 ± 0.763 ng·h/mL, the AUC(0-inf) was 5.58 ± 2.56 ng·h/mL, the Cmax is 0.297 ± 0.115 ng/mL and the MRT was determined as 18.2 ± 2.76 h. Moreover, in “in vivo”, the Tmax is 8 h. This compound also showed a half-life in the data set “in vivo” (t1/2) of 10.7 ± 1.2 h.
